Test results published in US20250296916A1, “BICYCLIC PIPERAZINONES AND THERAPEUTIC USES THEREOF” (Cytokinetics, Inc., priority 2022, published 2025).

System: rabbit skeletal myofibrils (approximately 90% fast fibers)
Test: Activation of fast skeletal myofibrils (PUMA coupled-enzyme ATPase assay)
Assay type: biochemical
Conditions: concentration at which the compound increased the enzymatic activity by 40%; calcium at pCa25; PM12 buffer pH 6.8
Experimental: Preparation of fast skeletal myofibrils: Rabbit skeletal myofibrils were prepared based upon the method of Herrmann et al. (Biochem. 32 (28): 7255-7263 (1993). Myofibrils were prepared from rabbit psoas muscle purchased from Pel-Freez Biologicals (Arkansas) within 2 days of ordering, stored on ice. Minced muscle was homogenized in 10 volumes of ice-cold “standard” buffer (50 mM Tris, pH 7.4, 0.1 M KOAc, 5 mM KCl, 2 mM dithiothreitol (DTT), 0.2 mM phenylmethylsulfonyl fluoride (PMSF), 10 μM leupeptin, 5 μM pepstatin, and 0.5 mM sodium azide) containing 5 mM ethylenediaminetetraacetic acid (EDTA) and 0.5% Triton X-100 using an Omni-Macro homogenizer. Myofibrils were recovered by low speed centrifugation (3000 rpm for 10 minutes) and washed 2 times in the Triton X-100 containing buffer to ensure removal of cellular membrane. Following the Triton washes, myofibrils were washed 3 times in “standard” buffer containing 2 mM magnesium acetate. A final wash in assay buffer (12 mM piperazine-1,4-bis(2-ethanesulfonic acid) (PIPES), pH 6.8, 60 mM KCl, 1 mM DTT) was performed and brought to 10% sucrose for flash freezing in liquid nitrogen and storage at −80° C.
Activation of Fast Skeletal Myofibrils: Fast fiber activators were identified by measuring the enzymatic activity of muscle myofibril preparations using the proprietary PUMA (trademark) (see, e.g., U.S. Pat. Nos. 6,410,254, 6,743,599, 7,202,051, and 7,378,254) assay system. Myofibril preparations consisted of rabbit skeletal muscle (approximately 90% fast fibers) that had been mechanically homogenized and washed with a detergent (Triton X-100) to remove cellular membranes. This preparation retained all of the sarcomeric components in a native conformation and the enzymatic activity was still regulated by calcium. Compounds were tested using a myofibril suspension and a level of calcium sufficient to increase enzymatic activity of the myofibrils to 25% of their maximal rate (termed pCa25). Enzymatic activity was tracked via a pyruvate kinase and lactate dehydrogenase-coupled enzyme system. This assay regenerates myosin-produced ADP into ATP by oxidizing NADH, producing an absorbance change at 340 nm. The buffering system was 12 mM PIPES, 2 mM MgCl2, 1 mM DTT at pH 6.8 (PM12 buffer). […] In Table 3, “Example Compound” refers to the compound labeled with the same number in Table 2.

AC1.4 [µM]	SMILES
0.27	CCC[C@H]1C(=O)Nc2ccccc2N1C(=O)c1ccc(N(C)Cc2ccccc2)nc1 [Compound 39, (S)-4-(6-(benzyl(methyl)amino)nicotinoyl)-3-propyl-3,4-dihydroquinoxalin-2(1H)-one]
2.37	CCC[C@H]1C(=O)Nc2ccccc2N1C(=O)c1ccc(N2CC(OC)C2)nc1 [Compound 40, (S)-4-(6-(3-methoxyazetidin-1-yl)nicotinoyl)-3-propyl-3,4-dihydroquinoxalin-2(1H)-one]
1.63	CCC[C@H]1C(=O)Nc2ccccc2N1C(=O)c1ccc(N2CCC(F)C2)nc1 (stereo partly drawn) [Compound 41, (3S)-4-(6-(3-fluoropyrrolidin-1-yl)nicotinoyl)-3-propyl-3,4-dihydroquinoxalin-2(1H)-one]
2.34	CCC[C@H]1C(=O)Nc2ccccc2N1C(=O)c1ccc(N2CC(F)(F)C2)nc1 [Compound 42, (S)-4-(6-(3,3-difluoroazetidin-1-yl)nicotinoyl)-3-propyl-3,4-dihydroquinoxalin-2(1H)-one]
2.78	CCC[C@H]1C(=O)Nc2ccccc2N1C(=O)c1ccc(N2CCC(F)(F)C2)nc1 [Compound 43, (S)-4-(6-(3,3-difluoropyrrolidin-1-yl)nicotinoyl)-3-propyl-3,4-dihydroquinoxalin-2(1H)-one]
2.61	CCC[C@H]1C(=O)Nc2ccccc2N1C(=O)c1ccc(N(C)CCC(F)(F)F)nc1 [Compound 44, (S)-4-(6-(methyl(3,3,3-trifluoropropyl)amino)nicotinoyl)-3-propyl-3,4-dihydroquinoxalin-2(1H)-one]
0.2	CCC[C@H]1C(=O)Nc2ccccc2N1C(=O)c1cn(C)nc1C [Compound 45, (S)-4-(1,3-dimethyl-1H-pyrazole-4-carbonyl)-3-propyl-3,4-dihydroquinoxalin-2(1H)-one]
0.47	CCC[C@H]1C(=O)Nc2ccccc2N1C(=O)NC1CCCCC1 [Compound 46, (S)-N-cyclohexyl-3-oxo-2-propyl-3,4-dihydroquinoxaline-1(2H)-carboxamide]
1.51	CCC[C@H]1C(=O)Nc2ccccc2N1C(=O)Nc1cccnc1 [Compound 47, (S)-3-oxo-2-propyl-N-(pyridin-3-yl)-3,4-dihydroquinoxaline-1(2H)-carboxamide]
1.08	CCC[C@H]1C(=O)Nc2ccccc2N1C(=O)Nc1ccncc1 [Compound 48, (S)-3-oxo-2-propyl-N-(pyridin-4-yl)-3,4-dihydroquinoxaline-1(2H)-carboxamide]
2.08	CCC[C@H]1C(=O)Nc2ccccc2N1C(=O)NCc1ccccc1 [Compound 49, (S)-N-benzyl-3-oxo-2-propyl-3,4-dihydroquinoxaline-1(2H)-carboxamide]
2.36	CCC[C@H]1C(=O)Nc2ccccc2N1C(=O)N[C@@H](C)c1ccccc1 [Compound 50, (S)-3-oxo-N-((S)-1-phenylethyl)-2-propyl-3,4-dihydroquinoxaline-1(2H)-carboxamide]
0.48	CCC[C@H]1C(=O)Nc2ccccc2N1C(=O)NCC1CCCCC1 [Compound 51, (S)-N-(cyclohexylmethyl)-3-oxo-2-propyl-3,4-dihydroquinoxaline-1(2H)-carboxamide]
0.58	CCC[C@H]1C(=O)Nc2ccccc2N1C(=O)N1CCc2ccccc21 [Compound 52, (S)-4-(indoline-1-carbonyl)-3-propyl-3,4-dihydroquinoxalin-2(1H)-one]
0.55	CCC[C@H]1C(=O)Nc2ccccc2N1C(=O)Nc1ccccc1OC [Compound 53, (S)-N-(2-methoxyphenyl)-3-oxo-2-propyl-3,4-dihydroquinoxaline-1(2H)-carboxamide]
0.31	CCC[C@H]1C(=O)Nc2ccccc2N1C(=O)Nc1cccc(OC)c1 [Compound 54, (S)-N-(3-methoxyphenyl)-3-oxo-2-propyl-3,4-dihydroquinoxaline-1(2H)-carboxamide]
1.88	CCC[C@H]1C(=O)Nc2ccccc2N1C(=O)Nc1ccc(OC)cc1 [Compound 55, (S)-N-(4-methoxyphenyl)-3-oxo-2-propyl-3,4-dihydroquinoxaline-1(2H)-carboxamide]
0.42	CCC[C@H]1C(=O)Nc2ccccc2N1C(=O)Nc1ccccc1F [Compound 56, (S)-N-(2-fluorophenyl)-3-oxo-2-propyl-3,4-dihydroquinoxaline-1(2H)-carboxamide]

AC1.4 [µM]	SMILES
0.24	CCC[C@H]1C(=O)Nc2ccccc2N1C(=O)Nc1cccc(F)c1 [Compound 57, (S)-N-(3-fluorophenyl)-3-oxo-2-propyl-3,4-dihydroquinoxaline-1(2H)-carboxamide]
0.26	CCC[C@H]1C(=O)Nc2ccccc2N1C(=O)Nc1ccc(F)cc1 [Compound 58, (S)-N-(4-fluorophenyl)-3-oxo-2-propyl-3,4-dihydroquinoxaline-1(2H)-carboxamide]
1.96	CCC[C@H]1C(=O)Nc2ccccc2N1C(=O)Nc1cnn(C)c1 [Compound 59, (S)-N-(1-methyl-1H-pyrazol-4-yl)-3-oxo-2-propyl-3,4-dihydroquinoxaline-1(2H)-carboxamide]
0.82	CCC[C@H]1C(=O)Nc2ccccc2N1C(=O)Nc1ccccc1C [Compound 60, (S)-3-oxo-2-propyl-N-(o-tolyl)-3,4-dihydroquinoxaline-1(2H)-carboxamide]
0.43	CCC[C@H]1C(=O)Nc2ccccc2N1C(=O)Nc1cccc(C)c1 [Compound 61, (S)-3-oxo-2-propyl-N-(m-tolyl)-3,4-dihydroquinoxaline-1(2H)-carboxamide]
1.39	CCC[C@H]1C(=O)Nc2ccccc2N1C(=O)Nc1ccc(C)cc1 [Compound 62, (S)-3-oxo-2-propyl-N-(p-tolyl)-3,4-dihydroquinoxaline-1(2H)-carboxamide]
0.04	CC[C@H](C)[C@H]1C(=O)Nc2ccccc2N1C(=O)c1cnn(C)c1 [Compound 63, (S)-3-((S)-sec-butyl)-4-(1-methyl-1H-pyrazole-4-carbonyl)-3,4-dihydroquinoxalin-2(1H)-one]
0.24	CCC[C@H]1C(=O)Nc2ccc(Cl)cc2N1C(=O)c1cnn(C)c1 [Compound 64, (S)-6-Chloro-4-(1-methyl-1H-pyrazole-4-carbonyl)-3-propyl-3,4-dihydroquinoxalin-2(1H)-one]
0.39	CCC[C@H]1C(=O)Nc2ccccc2N1C(=O)c1ccc2cncn2c1 [Compound 65, (S)-4-(imidazo[1,5-a]pyridine-6-carbonyl)-3-propyl-3,4-dihydroquinoxalin-2(1H)-one]
0.17	CCC[C@H]1C(=O)Nc2ccccc2N1C(=O)c1ccn2cncc2c1 [Compound 66, (S)-4-(imidazo[1,5-a]pyridine-7-carbonyl)-3-propyl-3,4-dihydroquinoxalin-2(1H)-one]
1.31	CCC[C@H]1C(=O)Nc2ccccc2N1C(=O)c1cnn(CCO)c1 [Compound 67, (S)-4-(1-(2-hydroxyethyl)-1H-pyrazole-4-carbonyl)-3-propyl-3,4-dihydroquinoxalin-2(1H)-one]
0.16	CC(C)C[C@H]1C(=O)Nc2ccccc2N1C(=O)c1cnn(C)c1 [Compound 68, (S)-3-isobutyl-4-(1-methyl-1H-pyrazole-4-carbonyl)-3,4-dihydroquinoxalin-2(1H)-one]
1.52	CCC[C@H]1C(=O)Nc2cccc(Br)c2N1C(=O)c1cnn(C)c1 [Compound 69, (S)-5-bromo-4-(1-methyl-1H-pyrazole-4-carbonyl)-3-propyl-3,4-dihydroquinoxalin-2(1H)-one]
0.46	CCC[C@H]1C(=O)Nc2ccccc2N1C(=O)c1cc2cccn2cn1 [Compound 70, (S)-3-propyl-4-(pyrrolo[1,2-c]pyrimidine-3-carbonyl)-3,4-dihydroquinoxalin-2(1H)-one]
0.54	CCC[C@H]1C(=O)Nc2ccccc2N1C(=O)c1cn[nH]c1 [Compound 71, (S)-3-propyl-4-(1H-pyrazole-4-carbonyl)-3,4-dihydroquinoxalin-2(1H)-one]
0.07	CC[C@H](C)[C@H]1C(=O)Nc2ccccc2N1C(=O)c1cn[nH]c1 [Compound 72, (S)-3-((S)-sec-butyl)-4-(1H-pyrazole-4-carbonyl)-3,4-dihydroquinoxalin-2(1H)-one]
0.11	CCC[C@H]1C(=O)Nc2ccccc2N1C(=O)c1cnc2[nH]ncc2c1 [Compound 73, (S)-3-propyl-4-(1H-pyrazolo[3,4-b]pyridine-5-carbonyl)-3,4-dihydroquinoxalin-2(1H)-one]
